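Compound exposure: 48 hours, 5 concentrations, 96-well plates. GI50 marks 50% less growth.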 Activity calls are given as the source filed them. Cut-off read from the data, not from the text of the source: active = GI50 up to about 1.1 µM and inactive = higher.
What was measured:
Test in all cases: inhibition of tumour cell growth, NCI panel, 48 h
HCT-15 = test system: HCT-15
SK-OV-3 = test system: SK-OV-3
SW-620 = test system: SW-620
NCI-H460 = test system: NCI-H460
MOLT-4 = test system: MOLT-4
OVCAR-5 = test system: OVCAR-5
RXF 393 = test system: RXF 393
SR = test system: SR
OVCAR-3 = test system: OVCAR-3
IGROV-1 = test system: IGROV-1
M14 = test system: M14
ACHN = test system: ACHN
MDA-N = test system: MDA-N
HL-60 = test system: HL-60
MDA-MB-231 = test system: MDA-MB-231
NCI-H522 = test system: NCI-H522
COLO 205 = test system: COLO 205
SK-MEL-2 = test system: SK-MEL-2
MCF7 = test system: MCF7
SNB-19 = test system: SNB-19

## O=C1/C(=C/c2ccco2)N=C(c2ccccc2)N1c1ccc(S(=O)(=O)Nc2nccs2)cc1
HCT-15
  GI50: 28.9 µM
SK-OV-3
  GI50: > 100 µM (inactive)
SW-620
  GI50: > 100 µM (inactive)
NCI-H460
  GI50: 45.9 µM (inactive)
MOLT-4
  GI50: 43.4 µM (inactive)
OVCAR-5
  GI50: > 100 µM (inactive)
RXF 393
  GI50: 69.5 µM (inactive)
SR
  GI50: > 100 µM (inactive)
OVCAR-3
  GI50: 83.9 µM (inactive)
IGROV-1
  GI50: > 100 µM (inactive)
M14
  GI50: > 100 µM (inactive)
ACHN
  GI50: 74.6 µM (inactive)
MDA-N
  GI50: > 100 µM (inactive)
HL-60
  GI50: 89.9 µM (inactive)
MDA-MB-231
  GI50: > 100 µM (inactive)
NCI-H522
  GI50: 30.9 µM (inactive)
COLO 205
  GI50: > 100 µM (inactive)
SK-MEL-2
  GI50: > 100 µM (inactive)
MCF7
  GI50: 61.4 µM (inactive)

## O=CN1CCN(CC(O)CN2CCCCC2)CC1 (stereo not drawn)
HCT-15
  GI50: > 100 µM
SK-OV-3
  GI50: > 100 µM (inactive)
SW-620
  GI50: > 100 µM (inactive)
MOLT-4
  GI50: > 100 µM (inactive)
OVCAR-5
  GI50: > 100 µM (inactive)
RXF 393
  GI50: > 100 µM (inactive)
SR
  GI50: > 100 µM (inactive)
SNB-19
  GI50: > 100 µM (inactive)
OVCAR-3
  GI50: > 100 µM (inactive)
IGROV-1
  GI50: > 100 µM (inactive)
M14
  GI50: > 100 µM (inactive)
ACHN
  GI50: > 100 µM (inactive)
MDA-N
  GI50: > 100 µM (inactive)
HL-60
  GI50: > 100 µM (inactive)
MDA-MB-231
  GI50: > 100 µM (inactive)
NCI-H522
  GI50: > 100 µM (inactive)
COLO 205
  GI50: > 100 µM (inactive)
SK-MEL-2
  GI50: > 100 µM (inactive)
MCF7
  GI50: > 100 µM (inactive)

## COC1CC(C)(NC(C)=O)C2OC(c3ccccc3)OCC2O1 (stereo not drawn)
HCT-15
  GI50: > 100 µM
SK-OV-3
  GI50: > 100 µM (inactive)
SW-620
  GI50: > 100 µM (inactive)
NCI-H460
  GI50: > 100 µM (inactive)
MOLT-4
  GI50: > 100 µM (inactive)
OVCAR-5
  GI50: > 100 µM (inactive)
RXF 393
  GI50: > 100 µM (inactive)
SR
  GI50: > 100 µM (inactive)
SNB-19
  GI50: > 100 µM (inactive)
OVCAR-3
  GI50: > 100 µM (inactive)
IGROV-1
  GI50: > 100 µM (inactive)
M14
  GI50: > 100 µM (inactive)
ACHN
  GI50: > 100 µM (inactive)
MDA-N
  GI50: > 100 µM (inactive)
HL-60
  GI50: > 100 µM (inactive)
MDA-MB-231
  GI50: > 100 µM (inactive)
NCI-H522
  GI50: > 100 µM (inactive)
COLO 205
  GI50: > 100 µM (inactive)
MCF7
  GI50: > 100 µM (inactive)

## CC1(C)CCCCCCCCCC(C)(CCCCCCCCCCCCO)C1=O (stereo not drawn)
HCT-15
  GI50: 21.7 µM
SK-OV-3
  GI50: 18.8 µM (inactive)
SW-620
  GI50: 18.3 µM (inactive)
NCI-H460
  GI50: 18.3 µM (inactive)
MOLT-4
  GI50: 27.2 µM (inactive)
OVCAR-5
  GI50: 18.5 µM (inactive)
RXF 393
  GI50: 18.7 µM (inactive)
SR
  GI50: 55.3 µM (inactive)
SNB-19
  GI50: 13 µM (inactive)
OVCAR-3
  GI50: 15.6 µM (inactive)
IGROV-1
  GI50: 19.1 µM (inactive)
ACHN
  GI50: 15 µM (inactive)
MDA-N
  GI50: 18.6 µM (inactive)
HL-60
  GI50: 15.7 µM (inactive)
MDA-MB-231
  GI50: 15.3 µM (inactive)
NCI-H522
  GI50: 16.5 µM (inactive)
COLO 205
  GI50: 28.6 µM (inactive)
SK-MEL-2
  GI50: 17.1 µM (inactive)
MCF7
  GI50: 16.8 µM (inactive)

## CC1OC(n2cnc3c(N)nc(Cl)nc32)C(C)(O)C1O (stereo not drawn)
HCT-15
  GI50: > 25 µM
SK-OV-3
  GI50: > 25 µM (inactive)
SW-620
  GI50: > 25 µM (inactive)
MOLT-4
  GI50: > 25 µM (inactive)
OVCAR-5
  GI50: > 25 µM (inactive)
RXF 393
  GI50: > 25 µM (inactive)
SR
  GI50: > 25 µM (inactive)
SNB-19
  GI50: > 25 µM (inactive)
OVCAR-3
  GI50: > 25 µM (inactive)
IGROV-1
  GI50: > 25 µM (inactive)
M14
  GI50: > 25 µM (inactive)
ACHN
  GI50: > 25 µM (inactive)
MDA-N
  GI50: > 25 µM (inactive)
HL-60
  GI50: > 25 µM (inactive)
MDA-MB-231
  GI50: > 25 µM (inactive)
NCI-H522
  GI50: > 25 µM (inactive)
COLO 205
  GI50: > 25 µM (inactive)
SK-MEL-2
  GI50: > 25 µM (inactive)
MCF7
  GI50: > 25 µM (inactive)

## CSc1c(C#N)c(=O)n(N)c2c1c(C)nn2-c1ccccc1
HCT-15
  GI50: 22.1 µM
SK-OV-3
  GI50: 26.4 µM (inactive)
SW-620
  GI50: 35.9 µM (inactive)
NCI-H460
  GI50: > 100 µM (inactive)
MOLT-4
  GI50: 27.5 µM (inactive)
OVCAR-5
  GI50: 24.1 µM (inactive)
RXF 393
  GI50: 18.7 µM (inactive)
SR
  GI50: 23.6 µM (inactive)
SNB-19
  GI50: 28.4 µM (inactive)
OVCAR-3
  GI50: 25.1 µM (inactive)
M14
  GI50: 35.7 µM (inactive)
MDA-N
  GI50: 35.6 µM (inactive)
HL-60
  GI50: 26.2 µM (inactive)
MDA-MB-231
  GI50: 17.6 µM (inactive)
NCI-H522
  GI50: 22.9 µM (inactive)
COLO 205
  GI50: 17.3 µM (inactive)
SK-MEL-2
  GI50: 19.3 µM (inactive)
MCF7
  GI50: 16.6 µM (inactive)

## O=Cc1ccc2c(c1)CC1(C2)Cc2ccc3c(c2C1)CCC3 (stereo not drawn)
HCT-15
  GI50: 8.51 µM
SK-OV-3
  GI50: 18.2 µM (inactive)
SW-620
  GI50: 3.98 µM (inactive)
NCI-H460
  GI50: 17.2 µM (inactive)
MOLT-4
  GI50: 6.41 µM (inactive)
OVCAR-5
  GI50: > 44.9 µM (inactive)
RXF 393
  GI50: 11.2 µM (inactive)
SR
  GI50: 4.42 µM (inactive)
SNB-19
  GI50: 7.08 µM (inactive)
OVCAR-3
  GI50: 6.68 µM (inactive)
IGROV-1
  GI50: 16.4 µM (inactive)
M14
  GI50: 7 µM (inactive)
ACHN
  GI50: 32.1 µM (inactive)
MDA-N
  GI50: 2.19 µM (inactive)
HL-60
  GI50: 3.75 µM (inactive)
MDA-MB-231
  GI50: 3.76 µM (inactive)
NCI-H522
  GI50: 34.8 µM (inactive)
COLO 205
  GI50: 20.8 µM (inactive)
SK-MEL-2
  GI50: 4.02 µM (inactive)
MCF7
  GI50: 4.43 µM (inactive)

## COc1ccc(/N=N/C(=N/NC(=O)c2ccc(C)cc2)c2ccc(N(CCC#N)CCC#N)cc2OC)cc1
HCT-15
  GI50: > 100 µM
SK-OV-3
  GI50: > 100 µM (inactive)
SW-620
  GI50: > 100 µM (inactive)
NCI-H460
  GI50: > 100 µM (inactive)
MOLT-4
  GI50: > 100 µM (inactive)
OVCAR-5
  GI50: > 100 µM (inactive)
RXF 393
  GI50: > 100 µM (inactive)
SR
  GI50: 36.6 µM (inactive)
SNB-19
  GI50: > 100 µM (inactive)
OVCAR-3
  GI50: > 100 µM (inactive)
IGROV-1
  GI50: > 100 µM (inactive)
M14
  GI50: > 100 µM (inactive)
ACHN
  GI50: > 100 µM (inactive)
MDA-N
  GI50: > 100 µM (inactive)
HL-60
  GI50: < 0.01 µM (active)
MDA-MB-231
  GI50: > 100 µM (inactive)
NCI-H522
  GI50: > 100 µM (inactive)
COLO 205
  GI50: > 100 µM (inactive)
SK-MEL-2
  GI50: > 100 µM (inactive)
MCF7
  GI50: > 100 µM (inactive)
